One assay has as its target CRBN-DDB1 (Homo sapiens (Human), UniProt Q96SW2). Put plainly: CRBN-DDB1 fluorescence polarization (FP) binding assay. As to conditions: displacement of Thalidomide-Alexa Fluor or Pomalidomide-fluorescein probe. The protocol:
Measuring compound ligand binding to CRBN-DDB1 was carried out using an established sensitive and quantitative in vitro fluorescence polarization (FP) based binding assay. […] Compounds were dispensed from serially diluted DMSO stock into black 384-well compatible fluorescence polarization plates using an Echo acoustic dispenser. Compound binding to CRBN-DDB1 was measured by displacement of either a (−)-Thalidomide-Alexa Fluor® or Pomalidomide-fluorescein conjugated probe dye. […] Matching control wells excluding CRBN-DDB1 were used to correct for background fluorescence. Plates were read on an Envision plate reader with appropriate FP filter sets. The corrected S (perpendicular) and P (parallel) values were used to calculate fluorescence polarization (FP) with the following equation: FP=1000*(S−G*P)/(S+G*P).

For the next assay, the system named is MOLT4.1 (WT) cell line. Put plainly: Cell viability analysis (CellTiter-Glo 2.0), MOLT4.1. It is filed as cell-based. As to conditions: MOLT4.1, 72 hr. The protocol: (§1) CellTiter-Glo® 2.0 Assay was purchased from Promega (Medison, Wis., USA). MOLT4.1 (WT) cell line was purchased from ATCC (Manassas, Va., USA) and MOLT4.2 (CRBN Knock Out) cell line was generated in house. Cell culture flasks and 384-well microplates were acquired from VWR (Radnor, Pa., USA).
(§2) MOLT4.1 and MOLT4.2 cell viability was determined based on quantification of ATP using CellTiter-Glo® 2.0 luminescent Assay kit, which signals the presence of metabolically-active cells. Briefly, MOLT4.1 and MOLT4.2 cells were seeded into 384-well plates at a cell density of 750 cells per well, the plates were kept at 37° C. with 5% CO2 overnight. On the following day, test compounds were added to the cells from a top concentration of 1 μM with 10 points, half log titration in duplicates. The cells treated in the absence of the test compound were the negative control and the cells treated in the absence of CellTiter-Glo® 2.0 were the positive control. At the same day of compound treatment, CellTiter-Glo® 2.0 was added to a plate with cells treated in the absence of the test compound to establish Cytostatic control value (Cro). Cells treated with the test compound were incubated for 72 hr. CellTiter-Glo reagent was then added to the cells and Luminescence was acquired on EnVision™ Multilabel Reader (PerkinElmer, Santa Clara, Calif., USA).
(§3) MOLT4.1 and MOLT4.2 cell viability was determined based on quantification of ATP using CellTiter-Glo® 2.0 luminescent Assay kit, which signals the presence of metabolically-active cells. Briefly, MOLT4.1 and MOLT4.2 cells were seeded into 384-well plates at a cell density of 750 cells per well, the plates were kept at 37° C. with 5% CO2 overnight. On the following day, test compounds were added to the cells from a top concentration of 1 μM with 10 points, half log titration in duplicates. […] CellTiter-Glo reagent was then added to the cells and Luminescence was acquired on EnVision™ Multilabel Reader (PerkinElmer, Santa Clara, Calif., USA).
In general terms: In ATP-based viability assays light output follows the ATP content of the culture.

The subject of assay [1] is MOLT4.2 (CRBN Knock Out) cell line. The assay is described as follows: Cell viability analysis (CellTiter-Glo 2.0), MOLT4.2. It is filed as cell-based. Particulars: MOLT4.2, 72 hr. The protocol:
as §1, §2, §3

Another assay concerns the target BRD4 BD1 (Homo sapiens (Human), UniProt O60885). The assay is described as follows: HiBit assay, BRD4 BD1 degradation analysis. It is filed as cell-based. Particulars: BRD4_BD1, 293T.29 cells, 3 hr. The procedure: DMEM no-phenol red medium and fetal bovine serum (FBS) were purchased from Gibco (Grand Island, N.Y., USA). Nano-Glo® HiBiT Lytic Assay System was purchased from Promega (Medison, Wis., USA). 293T.29 (HiBiT-BRD4 BD1) cell line was generated in house, ectopically expressing BRD4 BD1 domain with HiBiT fusion tag. Cell culture flasks and 384-well microplates were acquired from VWR (Radnor, Pa., USA).
BRD4 BD1 degradation was determined based on quantification of luminescent signal using Nano-Glo® HiBiT Lytic Assay kit. Test compounds were added to the 384-well plate from a top concentration of 1 μM with 11 points, half log titration in quadruplicates. 293T.29 cells were added into 384-well plates at a cell density of 15000 cells per well. The plates were kept at 37° C. with 5% CO2 for 3 hours. The cells treated in the absence of the test compound were the negative control and the cells treated with 30 nM of a known BRD4 degrader were the positive control. After 3-hour incubation, Nano-Glo® HiBiT Lytic Assay reagents were added to the cells. Luminescence was acquired on EnVision™ Multilabel Reader (PerkinElmer, Santa Clara, Calif., USA).

Chain of CRBN-DDB1 (Q96SW2 whole entry): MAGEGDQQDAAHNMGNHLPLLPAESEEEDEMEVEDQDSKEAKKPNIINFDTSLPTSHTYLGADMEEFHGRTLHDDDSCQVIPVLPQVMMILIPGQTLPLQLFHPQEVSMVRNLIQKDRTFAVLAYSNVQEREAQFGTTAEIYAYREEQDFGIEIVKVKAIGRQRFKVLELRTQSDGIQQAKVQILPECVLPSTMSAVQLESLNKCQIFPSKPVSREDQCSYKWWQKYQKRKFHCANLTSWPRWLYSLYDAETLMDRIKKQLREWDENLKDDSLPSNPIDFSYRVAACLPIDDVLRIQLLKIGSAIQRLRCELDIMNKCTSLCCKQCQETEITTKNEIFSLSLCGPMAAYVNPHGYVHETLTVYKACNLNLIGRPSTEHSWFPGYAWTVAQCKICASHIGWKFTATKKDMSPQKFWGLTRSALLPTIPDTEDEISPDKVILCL
Chain of CRBN-DDB1 (Q16531 whole entry partner): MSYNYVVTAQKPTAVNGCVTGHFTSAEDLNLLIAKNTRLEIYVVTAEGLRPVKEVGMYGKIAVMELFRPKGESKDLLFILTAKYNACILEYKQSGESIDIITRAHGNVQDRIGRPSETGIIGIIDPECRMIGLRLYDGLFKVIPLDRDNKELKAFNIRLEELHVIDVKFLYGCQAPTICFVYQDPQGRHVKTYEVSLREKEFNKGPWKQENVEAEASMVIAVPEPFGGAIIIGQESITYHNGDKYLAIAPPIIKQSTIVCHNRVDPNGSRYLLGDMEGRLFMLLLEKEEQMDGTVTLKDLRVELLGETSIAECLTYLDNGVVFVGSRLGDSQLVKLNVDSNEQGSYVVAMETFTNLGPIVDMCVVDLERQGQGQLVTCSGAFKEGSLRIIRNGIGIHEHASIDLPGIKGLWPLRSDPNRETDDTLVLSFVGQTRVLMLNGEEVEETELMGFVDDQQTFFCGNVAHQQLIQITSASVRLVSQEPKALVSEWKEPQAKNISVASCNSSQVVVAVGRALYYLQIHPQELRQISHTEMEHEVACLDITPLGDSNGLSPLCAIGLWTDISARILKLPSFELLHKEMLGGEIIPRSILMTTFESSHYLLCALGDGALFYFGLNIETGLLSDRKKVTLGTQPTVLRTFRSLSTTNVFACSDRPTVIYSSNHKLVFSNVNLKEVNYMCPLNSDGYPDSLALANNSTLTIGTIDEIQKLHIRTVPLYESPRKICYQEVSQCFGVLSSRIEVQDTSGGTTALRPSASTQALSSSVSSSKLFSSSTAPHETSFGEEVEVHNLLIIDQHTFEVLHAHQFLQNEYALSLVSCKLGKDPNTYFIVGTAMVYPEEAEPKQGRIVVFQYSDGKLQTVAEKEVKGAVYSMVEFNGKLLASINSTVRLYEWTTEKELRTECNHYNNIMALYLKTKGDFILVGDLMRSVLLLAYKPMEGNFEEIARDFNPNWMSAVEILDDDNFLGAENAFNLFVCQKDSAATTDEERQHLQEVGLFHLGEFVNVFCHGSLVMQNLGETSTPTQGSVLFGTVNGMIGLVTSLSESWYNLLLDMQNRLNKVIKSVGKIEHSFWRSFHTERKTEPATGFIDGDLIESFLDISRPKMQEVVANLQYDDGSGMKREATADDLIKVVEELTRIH

`O=C1CCC(O)(C(=O)OCc2ccccc2)C(=O)N1` (stereo not drawn) [Compound 60, benzyl 3-hydroxy-2,6-dioxopiperidine-3-carboxylate] returned an equilibrium dissociation constant (Kd) on CRBN-DDB1 of 10 to 50 µM.

`Cc1nc(C2CCC(=O)NC2=O)n2ccccc12` (stereo not drawn) [Compound 61, 3-(1-methylimidazo[1,5-a]pyridin-3-yl)piperidine-2,6-dione]: the Kd on CRBN-DDB1 was < 10 µM.

For the molecule `Cn1c(C2CCC(=O)NC2=O)nc2ccccc21` (stereo not drawn) [Compound 62, 3-(1-methyl-1H-benzo[d]imidazol-2-yl)piperidine-2,6-dione], the Kd at CRBN-DDB1 was in the range of 50 to 100 µM.

`O=C1CCC(c2cn(-c3ccccc3)cn2)C(=O)N1` (stereo not drawn) [Compound 64, 3-(1-phenyl-1H-imidazol-4-yl)piperidine-2,6-dione]: the dissociation constant (Kd) on CRBN-DDB1 is 10 to 50 µM.

Turning to `Cc1sc2c(c1C)C(c1ccc(Cl)cc1)=N[C@@H](CC(=O)NCCCCCCCC(=O)Nc1ccc3c(C4CCC(=O)NC4=O)nn(C)c3c1)c1nnc(C)n1-2` (stereo partly drawn) [Degronimer 1, 8-(2-((S)-4-(4-chlorophenyl)-2,3,9-trimethyl-6H-thieno[3,2-f][1,2,4]triazolo[4,3-a][1,4]diazepin-6-yl)acetamido)-N-(3-(2,6-dioxopiperidin-3-yl)-1-methyl-1H-indazol-6-yl)octanamide], the dissociation constant Kd at CRBN-DDB1 (Table 2) was < 10 µM. In the assay with MOLT4.1 (WT) cell line, the Emax lay in the range of 0 to 50%, the 50% growth inhibitory concentration (GI50) was 0.1 to 1 µM and the “LD50 (nM)” value is recorded as “+ (>1 μM = +)”. Further, in assay [1], the Emax was > 50%, the 50% growth inhibitory concentration (GI50) was > 1 µM and the “LD50 (nM)” value is “+ (>1 μM = +)”. The 50% degradation concentration (DC50) at BRD4 BD1 is > 0.83 µM.

Broadly, the Kd is the free concentration of one partner at which half of the binding sites on the other are occupied at equilibrium, for simple one-to-one binding. Higher therefore signals lower affinity. In general, GI50 refers to the concentration that inhibits growth by half. Low readings indicate more potent growth inhibition, high ones less potent growth inhibition. A word on the DC50: it is the concentration at which degradation of the target reaches its halfway point.
